The source of these data is US8143262B2, “7-(3′,4′-Dialkoxyphenyl)[1,2,4]-triazolo[1,5-A]pyrimidine compounds, process for preparing thereof, and pharmaceutical composition for treating or preventing asthma, chronic obstructive pulmonary disease, arthritis, atopic dermatitis, tumor and degenerative brain diseases comprising the same” (Korea Research Institute of Chemical Technology, priority 2007, dated 2012).

The structures appear in SMILES notation.

The experiment concerns the target T1, Human PDE-4d (Homo sapiens, UniProt Q08499).
T1 construct: The catalytic domain of PDE4d was cloned to pGEX4T3 (APBiotech) as GST fusion expression vector; GST (N); made in house; host or cells: E. coli BL21, DE3
In words: Inhibition of PDE-4 activity ([3H]cAMP hydrolysis, recombinant catalytic domain). Type of experiment: biochemical. Conditions: for IC50: PDE4d 1 nM, cAMP 250 nM, 34° C., 45 minutes, read-out: IC50 against PDE-4 enzyme; for activity on inhibiting PDE-4 (in words): comment on Table 2. How it is done: Experiment of inhibiting PDE-4 activity was carried out by modifying the method of Loughney (Loughney et al., Journal of Biological Chemistry, 1996, 271(2), 796-806). Human PDE-4d prepared by means of gene recombination technology was used as PDE-4d
The catalytic domain of PDE4d was cloned to pGEX4T3 (APBiotech) as GST fusion expression vector, and then PDE4d gene was transformed to E. coli BL21, DE3. The strain was cultured at 37° C. in LB medium, and when OD reached about 0.3˜0.5, the temperature was lowered to 18° C. to induce expression of PDE4d by using 0.5 mM IPTG. After 15 hours from induction of the expression, cells with PDE4d expressed were recovered. The cells were suspended in a buffer solution (50 mM Tris, pH 8.0, 0.4M NaCl, 5 mM DTT), and crushed, centrifuged and purified. The columns used for the purification were Q-cephalose (APBiotech), Glutanione-cephalose (APBiotech) and Superdex200 gel permeation chromatography (APBiotech), in this order.
In order to measure the ability of individual compound to inhibit PDE4d activity, PDE4d 1 nM and cAMP (Sigma) 250 nM as substrate were added to the reaction buffer (50 mM Tris-HCl (pH 7.5) and 4 mM MgCl2), and individual compound obtained from Example 1 was added in a concentration from 1 to 50 μM thereto, and the mixture was reacted at 34° C. for 45 minutes. Total reaction solution was 60 μl. As to cAMP, a mixture with the ratio of [^3H]cAMP (Amersham, 1 μCi/μl) to cAMP (hot:cold, that is, isotope:non-isotope) being 1:200 was used. Then, the reaction was quenched by heating at 95° C. for 2 minutes. After cooling the mixture for 3 minutes, 1 mg/ml of Snake Venome (Sigma V0376) (30 μl) was added thereto. After reacting at 34° C. for 30 minutes, 30 μl of the reaction mixture was added to 250 μl of DOWEX 1×2-100 ion exchange resin (Aldrich, previously mixed with distilled water in a ratio of 1:1.6) by portions, and the mixture was vigorously stirred for 2 minutes. After settling the resin down, the supernatant (130 μl) was added to 2 ml of scintillation cocktail (Packard), and the mixture was thoroughly mixed, and then measured by using beta-counter. With respect to the enzyme activity of control group (experiment carried out without adding compound of Chemical Formula (1)), the concentration of each test compound to inhibit 50% of enzyme activity was determined as IC50.

T1 sequence (Q08499 386-715 limits assumed): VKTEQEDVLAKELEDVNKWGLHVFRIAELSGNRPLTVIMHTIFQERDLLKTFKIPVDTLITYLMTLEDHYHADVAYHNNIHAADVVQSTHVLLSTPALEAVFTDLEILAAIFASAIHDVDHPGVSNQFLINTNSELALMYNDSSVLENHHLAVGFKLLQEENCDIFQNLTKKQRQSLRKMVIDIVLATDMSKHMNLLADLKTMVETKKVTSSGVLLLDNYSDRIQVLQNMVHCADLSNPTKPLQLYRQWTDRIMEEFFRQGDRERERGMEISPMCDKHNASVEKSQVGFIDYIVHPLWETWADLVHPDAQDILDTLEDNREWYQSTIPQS

Take `COc1ccc(-c2ccnc3nc(-c4cccc(C#N)c4)nn23)cc1OC1CCCC1` [Compound 129, 7-[3-(Cyclopentoxy)-4-methoxyphenyl]-2-(3-cyanophenyl)-[1,2,4]triazolo[1,5-a]pyrimidine]: the half-inhibitory concentration (IC50) came to 13 nM.
In the case of `N#Cc1cccc(-c2nc3nccc(-c4ccc(OC(F)F)c(OCC5CC5)c4)n3n2)c1` [Compound 115, 2-(3-Cyanophenyl)-7-[3-(cyclopropylmethoxy)-4-(difluoromethoxy)phenyl]-[1,2,4]triazolo[1,5-a]pyrimidine], the IC50 worked out at 10 nM and the “activity on inhibiting PDE-4 (in words)” value was “excellent activity on inhibiting PDE-4”.
As for `[O-][n+]1ccc(-c2nc3nccc(-c4ccc(OC(F)F)c(OCC5CC5)c4)n3n2)cc1` [Compound 110, 4-[7-{3-(Cyclopropylmethoxy)-4-(difluoromethoxy)phenyl}-[1,2,4]triazolo[1,5-a]pyrimidine-2-yl]-pyridine-N-oxide], the IC50 turned out to be 160 nM.
As to `O=[N+]([O-])c1cccc(-c2nc3nccc(-c4ccc(OC(F)F)c(OCC5CC5)c4)n3n2)c1` [Compound 116, 7-[3-(Cyclopropylmethoxy)-4-(difluoromethoxy)phenyl]-2-(3-nitrophenyl)-[1,2,4]triazolo[1,5-a]pyrimidine], the IC50 came to 20 nM.
On the same count and under the same terms, the value for `FC(F)Oc1ccc(-c2ccnc3nc(-c4cccnc4)nn23)cc1OCC1CC1` [Compound 111, 3-[7-{3-(cyclopropylmethoxy)-4-(difluoromethoxy)phenyl}-[1,2,4]triazolo[1,5-a]pyrimidin-2-yl]-pyridinium bisulfate] was 42 nM; that for `COc1cc(-c2nc3nccc(-c4ccc(OC(F)F)c(OCC5CC5)c4)n3n2)ccc1C` [Compound 134, 7-[3-(Cyclopropylmethoxy)-4-(difluoromethoxy)phenyl]-2-(3-methoxy-4-methylphenyl)-[1,2,4]triazolo[1,5-a]pyrimidine] was 40 nM.
Still for that read-out and setting: for `COC(=O)c1ccc(-c2nc3nccc(-c4ccc(OC(F)F)c(OCC5CC5)c4)n3n2)cn1` [Compound 138, 5-[7-{3-(cyclopropylmethoxy)-4-(difluoromethoxy)phenyl}-[1,2,4]triazolo[1,5-a]pyrimidin-2-yl]pyridine-2-carboxylic acid methyl ester] the value was 180 nM; for `N#Cc1ncccc1-c1nc2nccc(-c3ccc(OC(F)F)c(OCC4CC4)c3)n2n1` [Compound 124, 2-(6-cyano-pyridin-5-yl)-7-[3-(cyclopropylmethoxy)-4-(difluoromethoxy)phenyl]-[1,2,4]triazolo[1,5-a]pyrimidine], 190 nM; for `FC(F)Oc1ccc(-c2ccnc3nc(-c4cccnc4)nn23)cc1OC(F)F` [Compound 114, 7-(3,4-Bis-difluoromethoxyphenyl)-2-pyridin-3-yl[1,2,4]triazolo[1,5-a]pyrimidine], 170 nM.
Consider `N#Cc1ccc(-c2nc3nccc(-c4ccc(OC(F)F)c(OCC5CC5)c4)n3n2)cn1` [Compound 123, 2-(2-cyano-pyridin-5-yl)-7-[3-(cyclopropylmethoxy)-4-(difluoromethoxy)phenyl]-[1,2,4]triazolo[1,5-a]pyrimidine], for which the IC50 is 170 nM.
Consider `COc1ccc(-c2ccnc3nc(-c4cccnc4)nn23)cc1OC1CCCC1` [Compound 135, 7-[3-(Cyclopentoxy)-4-methoxyphenyl]-2-(3-pyridyl)-[1,2,4]triazolo[1,5-a]pyrimidine], for which the IC50 worked out at 50 nM.
In the case of `[O-][n+]1cccc(-c2nc3nccc(-c4ccc(OC(F)F)c(OC(F)F)c4)n3n2)c1` [Compound 130, 3-[7-(3,4-Bis-difluoromethoxyphenyl)-[1,2,4]triazolo[1,5-a]pyrimidine-2-yl]-pyridine-N-oxide], the IC50 is 250 nM.
With `FC(F)Oc1ccc(-c2ccnc3nc(-c4ccc(Cl)nc4)nn23)cc1OCC1CC1` [Compound 104, 2-(6-chloropyridin-3-yl)-7-[3-(cyclopropylmethoxy)-4-(difluoromethoxy)phenyl]-[1,2,4]triazolo[1,5-a]pyrimidine], the IC50 worked out at 160 nM.
Still for that read-out and setting: for `[O-][n+]1cccc(-c2nc3nccc(-c4ccc(OC(F)F)c(OCC5CC5)c4)n3n2)c1Cl` [Compound 109, 3-[7-{3-(Cyclopropylmethoxy)-4-(difluoromethoxy)phenyl}-[1,2,4]triazolo[1,5-a]pyrimidine-2-yl]-2-Chloropyridine-N-oxide] the value was 160 nM; for `FC(F)Oc1ccc(-c2ccnc3nc(-c4cccc(C(F)(F)F)c4)nn23)cc1OCC1CC1` [Compound 128, 7-[3-(Cyclopropylmethoxy)-4-(difluoromethoxy)phenyl]-2-(3-trifluoromethylphenyl)-[1,2,4]triazolo[1,5-a]pyrimidine], 30 nM; for `FC(F)Oc1ccc(-c2ccnc3nc(-c4cccnc4Cl)nn23)cc1OCC1CC1` [Compound 105, 2-(2-chloropyridin-3-yl)-7-[3-(cyclopropylmethoxy)-4-(difluoromethoxy)phenyl]-[1,2,4]triazolo[1,5-a]pyrimidine], 52 nM.
On to `COc1cccc(-c2nc3nccc(-c4ccc(OC(F)F)c(OCC5CC5)c4)n3n2)c1` [Compound 107, 7-[3-(Cyclopropylmethoxy)-4-(difluoromethoxy)phenyl]-2-(3-methoxyphenyl)-[1,2,4]triazolo[1,5-a]pyrimidine], for which the IC50 was found to be 6 nM and the “activity on inhibiting PDE-4 (in words)” value was “excellent activity on inhibiting PDE-4”.
On to `Fc1cccc(-c2nc3nccc(-c4ccc(OC(F)F)c(OCC5CC5)c4)n3n2)c1` [Compound 106, 7-[3-(Cyclopropylmethoxy)-4-(difluoromethoxy)phenyl]-2-(3-fluorophenyl)-[1,2,4]triazolo[1,5-a]pyrimidine], for which the IC50 turned out to be 23 nM.
Turning to `O=C(O)c1ccc(-c2nc3nccc(-c4ccc(OC(F)F)c(OCC5CC5)c4)n3n2)cc1` [Compound 118, 4-[7-{3-(cyclopropylmethoxy)-4-(difluoromethoxy)phenyl}-[1,2,4]triazolo[1,5-a]pyrimidin-2-yl]benzoic acid], the IC50 was 30 nM.
As to `N#Cc1ccc(-c2nc3nccc(-c4ccc(OC(F)F)c(OCC5CC5)c4)n3n2)cc1` [Compound 117, 2-(4-Cyanophenyl)-7-[3-(cyclopropylmethoxy)-4-(difluoromethoxy)phenyl]-[1,2,4]triazolo[1,5-a]pyrimidine], the IC50 worked out at 50 nM.
Same read-out and setting: the value for `FC(F)Oc1ccc(-c2ccnc3nc(-c4ccc(I)cc4)nn23)cc1OCC1CC1` [Compound 127, 7-[3-(Cyclopropylmethoxy)-4-(difluoromethoxy)phenyl]-2-(4-iodophenyl)-[1,2,4]triazolo[1,5-a]pyrimidine] was 50 nM; that for `[O-][n+]1cc(-c2nc3nccc(-c4ccc(OC(F)F)c(OCC5CC5)c4)n3n2)ccc1Cl` [Compound 108, 3-[7-{3-(Cyclopropylmethoxy)-4-(difluoromethoxy)phenyl}-[1,2,4]triazolo[1,5-a]pyrimidine-2-yl]-6-Chloropyridine-N-oxide] was 240 nM.
Turning to `O=C(O)c1cccc(-c2nc3nccc(-c4ccc(OC(F)F)c(OCC5CC5)c4)n3n2)c1` [Compound 131, 3-[7-{3-(Cyclopropylmethoxy)-4-(difluoromethoxy)phenyl}-[1,2,4]triazolo[1,5-a]pyrimidin-2-yl]benzoic acid], the IC50 came out at 20 nM and the “activity on inhibiting PDE-4 (in words)” value is listed as “excellent activity on inhibiting PDE-4”.
